{"source": "patent US20230322789A1", "about": "“PYRAZOLOPYRIDAZINONE COMPOUND, AND PHARMACEUTICAL COMPOSITION AND USE THEREOF” (BroadenBio Co., Ltd., priority 2020, published 2023)", "key": {"HPK1": {"biological_target": "HPK1 (Homo sapiens (Human), UniProt Q92918)", "sequence (Q92918 whole entry)": "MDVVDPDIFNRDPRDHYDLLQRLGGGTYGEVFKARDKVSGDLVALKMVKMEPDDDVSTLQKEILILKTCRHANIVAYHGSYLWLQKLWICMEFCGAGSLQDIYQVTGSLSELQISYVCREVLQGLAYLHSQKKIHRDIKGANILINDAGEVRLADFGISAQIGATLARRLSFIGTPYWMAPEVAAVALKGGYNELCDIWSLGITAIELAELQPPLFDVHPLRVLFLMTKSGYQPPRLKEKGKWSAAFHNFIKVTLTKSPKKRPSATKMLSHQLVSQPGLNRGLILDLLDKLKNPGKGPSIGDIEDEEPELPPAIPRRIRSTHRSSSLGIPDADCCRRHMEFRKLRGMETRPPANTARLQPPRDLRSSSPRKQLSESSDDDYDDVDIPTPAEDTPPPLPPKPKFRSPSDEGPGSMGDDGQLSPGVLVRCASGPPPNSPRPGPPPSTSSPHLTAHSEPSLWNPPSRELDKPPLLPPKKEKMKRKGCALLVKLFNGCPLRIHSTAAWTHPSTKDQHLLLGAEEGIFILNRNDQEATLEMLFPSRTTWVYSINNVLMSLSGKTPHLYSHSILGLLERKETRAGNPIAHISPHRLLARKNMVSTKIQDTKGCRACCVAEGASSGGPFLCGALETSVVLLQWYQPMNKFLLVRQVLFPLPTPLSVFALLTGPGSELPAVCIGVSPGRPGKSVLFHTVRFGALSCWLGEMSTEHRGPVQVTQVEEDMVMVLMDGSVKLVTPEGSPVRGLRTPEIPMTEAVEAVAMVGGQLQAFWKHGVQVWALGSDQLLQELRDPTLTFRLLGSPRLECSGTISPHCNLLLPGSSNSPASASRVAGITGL", "test": "HPK1 kinase activity inhibition test (ADP-Glo, luminescence)", "format": "biochemical", "settings": "HPK1 5 nM, ATP 2 μM, read-out: IC50, inhibitory effects of compounds on HPK1 kinase activity", "how_it_was_run": "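HPK1 autophosphorylation was run without added substrate. Kinase and compound were preincubated 10 min at 25° C., then ATP was added for 60 min at 25° C. ADP formed was detected by ADP-Glo luminescence, and IC50 was taken from a four-parameter nonlinear fit.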"}, "Human Jurkat-E6-1 cells": {"test_system": "Human Jurkat-E6-1 cells", "test": "Measurement of IL-2 secretion of Jurkat cells by ELISA", "format": "cell-based", "settings": "Homo sapiens, Jurkat E6.1, anti-CD3/anti-CD28 stimulation 24 hours, read-out: Percentage of the amount of IL-2 secreted from compound treated/DMSO-treated cells; for activity at 3 µM: test compound 3.0 μM; for activity at 1 µM: test compound 1.0 μM", "how_it_was_run": "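Jurkat-E6-1 cells pre-incubated with compound for 30 min at 37° C, then stimulated 24 h with plate-bound anti-CD3 plus soluble anti-CD28. Secreted IL-2 in medium quantified by sandwich ELISA against a standard curve; expressed as percent of DMSO-treated cells.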"}}, "data": [{"smiles": "Cc1cccc(F)c1-n1nc2c(-c3ccc(N4CCN(C)C(CO)C4)nc3)n[nH]c2cc1=O", "note": "(centres unmarked) [Compound 128, 5-(2-fluoro-6-methylphenyl)-3-(6-(3-(hydroxymethyl)-4-methylpiperazin-1-yl)pyrid-3-yl)-1H-pyrazolo[4,3-c]pyridazin-6(5H)-one]", "values": [{"measurement": "IC50", "setting": "HPK1", "result": "≤ 0.05", "unit": "µM"}, {"measurement": "activity at 3 µM", "setting": "Human Jurkat-E6-1 cells", "result": 472, "unit": "%"}]}, {"smiles": "Cc1cccc(F)c1-n1nc2c(-c3ccc(N4CCN(C)CC4CO)cc3)n[nH]c2cc1=O", "note": "(centres unmarked) [Compound 130, 5-(2-fluoro-6-methylphenyl)-3-(4-(2-(hydroxymethyl)-4-methylpiperazin-1-yl)phenyl)-1H-pyrazolo[4,3-c]pyridazin-6(5H)-one]", "values": [{"measurement": "IC50", "setting": "HPK1", "result": "≤ 0.05", "unit": "µM"}, {"measurement": "activity at 3 µM", "setting": "Human Jurkat-E6-1 cells", "result": 454, "unit": "%"}]}, {"smiles": "Cc1cccc(F)c1-n1nc2c(-c3ccc(N4CCN5CCOC[C@@H]5C4)cc3)n[nH]c2cc1=O", "note": "[Compound 133, (S)-5-(2-fluoro-6-methylphenyl)-3-(4-(hexahydropyrazino[2,1-c][1,4]oxazin-8(1H)-yl)phenyl)-1H-pyrazolo[4,3-c]pyridazin-6(5H)-one]", "values": [{"measurement": "IC50", "setting": "HPK1", "result": "≤ 0.05", "unit": "µM"}, {"measurement": "activity at 3 µM", "setting": "Human Jurkat-E6-1 cells", "result": 800, "unit": "%"}]}, {"smiles": "Cc1cccc(F)c1-n1nc2c(-c3ccc(N4CCN5CCOC[C@H]5C4)cc3)n[nH]c2cc1=O", "note": "[Compound 134, (R)-5-(2-fluoro-6-methylphenyl)-3-(4-(hexahydropyrazino[2,1-c][1,4]oxazin-8(1H)-yl)phenyl)-1H-pyrazolo[4,3-c]pyridazin-6(5H)-one]", "values": [{"measurement": "IC50", "setting": "HPK1", "result": "≤ 0.05", "unit": "µM"}, {"measurement": "activity at 3 µM", "setting": "Human Jurkat-E6-1 cells", "result": 527, "unit": "%"}]}, {"smiles": "COc1cccc(F)c1-n1nc2c(-c3ccc(N4CCN5CCOC[C@@H]5C4)cc3)n[nH]c2cc1=O", "note": "[Compound 135, (S)-5-(2-fluoro-6-methoxyphenyl)-3-(4-(hexahydropyrazino[2,1-c][1,4]oxazin-8(1H)-yl)phenyl)-1H-pyrazolo[4,3-c]pyridazin-6(5H)-one]", "values": [{"measurement": "IC50", "setting": "HPK1", "result": "≤ 0.05", "unit": "µM"}, {"measurement": "activity at 3 µM", "setting": "Human Jurkat-E6-1 cells", "result": 964, "unit": "%"}]}, {"smiles": "COc1cccc(F)c1-n1nc2c(-c3ccc(N4CCN5CCOC[C@H]5C4)cc3)n[nH]c2cc1=O", "note": "[Compound 136, (R)-5-(2-fluoro-6-methoxyphenyl)-3-(4-(hexahydropyrazino[2,1-c][1,4]oxazin-8(1H)-yl)phenyl)-1H-pyrazolo[4,3-c]pyridazin-6(5H)-one]", "values": [{"measurement": "IC50", "setting": "HPK1", "result": "≤ 0.05", "unit": "µM"}, {"measurement": "activity at 3 µM", "setting": "Human Jurkat-E6-1 cells", "result": 702, "unit": "%"}]}, {"smiles": "Cc1cccc(F)c1-n1nc2c(-c3ccc(N4CCn5ccnc5C4)cc3)n[nH]c2cc1=O", "note": "[Compound 137, 3-(4-(5,6-dihydroimidazolo[1,2-a]pyrazin-7(8H)-yl)phenyl)-5-(2-fluoro-6-methylphenyl)-1H-pyrazolo[4,3-c]pyridazin-6(5H)-one]", "values": [{"measurement": "IC50", "setting": "HPK1", "result": "≤ 0.05", "unit": "µM"}, {"measurement": "activity at 3 µM", "setting": "Human Jurkat-E6-1 cells", "result": 291, "unit": "%"}]}, {"smiles": "Cc1cccc(F)c1-n1nc2c(-c3ccc(N4CCC(O)CC4)cc3)n[nH]c2cc1=O", "note": "[Compound 138, 5-(2-fluoro-6-methylphenyl)-3-(4-(4-hydroxylpiperidin-1-yl)phenyl)-1H-pyrazolo[4,3-c]pyridazin-6(5H)-one]", "values": [{"measurement": "IC50", "setting": "HPK1", "result": "≤ 0.05", "unit": "µM"}, {"measurement": "activity at 3 µM", "setting": "Human Jurkat-E6-1 cells", "result": 873, "unit": "%"}]}, {"smiles": "COc1cccc(F)c1-n1nc2c(-c3ccc(N4CCC(O)CC4)cc3)n[nH]c2cc1=O", "note": "[Compound 139, 5-(2-fluoro-6-methoxyphenyl)-3-(4-(4-hydroxylpiperidin-1-yl)phenyl)-1H-pyrazolo[4,3-c]pyridazin-6(5H)-one]", "values": [{"measurement": "IC50", "setting": "HPK1", "result": "≤ 0.05", "unit": "µM"}, {"measurement": "activity at 3 µM", "setting": "Human Jurkat-E6-1 cells", "result": 315, "unit": "%"}]}, {"smiles": "COc1cccc(F)c1-n1nc2c(-c3ccc(N4CCC(C)(O)CC4)cc3)n[nH]c2cc1=O", "note": "[Compound 140, 5-(2-fluoro-6-methoxyphenyl)-3-(4-(4-hydroxyl-4-methylpiperidin-1-yl)phenyl)-1H-pyrazolo[4,3-c]pyridazin-6(5H)-one]", "values": [{"measurement": "IC50", "setting": "HPK1", "result": "≤ 0.05", "unit": "µM"}, {"measurement": "activity at 3 µM", "setting": "Human Jurkat-E6-1 cells", "result": 436, "unit": "%"}]}, {"smiles": "COc1cccc(F)c1-n1nc2c(-c3ccc(N4CCC(C)(OC)CC4)cc3)n[nH]c2cc1=O", "note": "[Compound 141, 5-(2-fluoro-6-methoxyphenyl)-3-(4-(4-methoxy-4-methylpiperidin-1-yl)phenyl)-1H-pyrazolo[4,3-c]pyridazin-6(5H)-one]", "values": [{"measurement": "IC50", "setting": "HPK1", "result": "≤ 0.05", "unit": "µM"}, {"measurement": "activity at 3 µM", "setting": "Human Jurkat-E6-1 cells", "result": 390, "unit": "%"}]}, {"smiles": "Cc1cccc(F)c1-n1nc2c(-c3ccc(N4CCC(N5CCOCC5)CC4)cc3)n[nH]c2cc1=O", "note": "[Compound 142, 5-(2-fluoro-6-methylphenyl)-3-(4-(4-morpholinopiperidin-1-yl)phenyl)-1H-pyrazolo[4,3-c]pyridazin-6(5H)-one]", "values": [{"measurement": "IC50", "setting": "HPK1", "result": "≤ 0.05", "unit": "µM"}, {"measurement": "activity at 3 µM", "setting": "Human Jurkat-E6-1 cells", "result": 708, "unit": "%"}]}, {"smiles": "Cc1cccc(F)c1-n1nc2c(-c3ccc(N4CCC(N5CCN(C)CC5)CC4)cc3)n[nH]c2cc1=O", "note": "[Compound 143, 5-(2-fluoro-6-methylphenyl)-3-(4-(4-(4-methylpiperazin-1-yl)piperidin-1-yl)phenyl)-1H-pyrazolo[4,3-c]pyridazin-6(5H)-one]", "values": [{"measurement": "IC50", "setting": "HPK1", "result": "≤ 0.05", "unit": "µM"}, {"measurement": "activity at 3 µM", "setting": "Human Jurkat-E6-1 cells", "result": 786, "unit": "%"}]}, {"smiles": "COc1cccc(F)c1-n1nc2c(-c3ccc(N4CCC(N5CCOCC5)CC4)cc3)n[nH]c2cc1=O", "note": "[Compound 144, 5-(2-fluoro-6-methoxyphenyl)-3-(4-(4-morpholinopiperidin-1-yl)phenyl)-1H-pyrazolo[4,3-c]pyridazin-6(5H)-one]", "values": [{"measurement": "IC50", "setting": "HPK1", "result": "≤ 0.05", "unit": "µM"}, {"measurement": "activity at 3 µM", "setting": "Human Jurkat-E6-1 cells", "result": 716, "unit": "%"}]}, {"smiles": "COc1cccc(F)c1-n1nc2c(-c3ccc(N4CCC(N5CCN(C)CC5)CC4)cc3)n[nH]c2cc1=O", "note": "[Compound 145, 5-(2-fluoro-6-methoxyphenyl)-3-(4-(4-(4-methylpiperazin-1-yl)piperidin-1-yl)phenyl)-1H-pyrazolo[4,3-c]pyridazin-6(5H)-one]", "values": [{"measurement": "IC50", "setting": "HPK1", "result": "≤ 0.05", "unit": "µM"}, {"measurement": "activity at 3 µM", "setting": "Human Jurkat-E6-1 cells", "result": 776, "unit": "%"}]}, {"smiles": "COc1cccc(F)c1-n1nc2c(-c3ccc(N4CCC(C)(N)CC4)cc3)n[nH]c2cc1=O", "note": "[Compound 146, 3-(4-(4-amino-4-methylpiperidin-1-yl)phenyl)-5-(2-fluoro-6-methoxyphenyl)-1H-pyrazolo[4,3-c]pyridazin-6(5H)-one]", "values": [{"measurement": "IC50", "setting": "HPK1", "result": "≤ 0.05", "unit": "µM"}, {"measurement": "activity at 3 µM", "setting": "Human Jurkat-E6-1 cells", "result": 537, "unit": "%"}]}, {"smiles": "COc1cccc(F)c1-n1nc2c(-c3ccc(N4CCC(C)(N(C)C)CC4)cc3)n[nH]c2cc1=O", "note": "[Compound 147, 3-(4-(4-(dimethylamino)-4-methylpiperidin-1-yl)phenyl)-5-(2-fluoro-6-methoxyphenyl)-1H-pyrazolo[4,3-c]pyridazin-6(5H)-one]", "values": [{"measurement": "IC50", "setting": "HPK1", "result": "≤ 0.05", "unit": "µM"}, {"measurement": "activity at 3 µM", "setting": "Human Jurkat-E6-1 cells", "result": 616, "unit": "%"}]}, {"smiles": "COc1cccc(F)c1-n1nc2c(-c3cnc(N4CCOCC4)s3)n[nH]c2cc1=O", "note": "[Compound 148]", "values": [{"measurement": "IC50", "setting": "HPK1", "result": "≤ 0.05", "unit": "µM"}, {"measurement": "activity at 1 µM", "setting": "Human Jurkat-E6-1 cells", "result": 531, "unit": "%"}]}, {"smiles": "COc1ccncc1-n1nc2c(-c3ccc(C4=CCN(C)CC4)cc3)n[nH]c2cc1=O", "note": "[Compound 151, 5-(4-methoxypyrid-3-yl)-3-(4-(1-methyl-1,2,3,6-tetrahydropyridin-4-yl)phenyl)-1H-pyrazolo[4,3-c]pyridazin-6(5H)-one]", "values": [{"measurement": "IC50", "setting": "HPK1", "result": "0.05 to 0.5", "unit": "µM"}, {"measurement": "activity at 3 µM", "setting": "Human Jurkat-E6-1 cells", "result": 230, "unit": "%"}]}, {"smiles": "COc1cccc(F)c1-n1nc2c(-c3ccc(N4CCN(C)CC4)cc3)n[nH]c2c(C)c1=O", "note": "[Compound 154, 5-(2-fluoro-6-methoxyphenyl)-7-methyl-3-(4-(4-methylpiperazin-1-yl)phenyl)-1H-pyrazolo[4,3-c]pyridazin-6(5H)-one]", "values": [{"measurement": "IC50", "setting": "HPK1", "result": "0.05 to 0.5", "unit": "µM"}, {"measurement": "activity at 1 µM", "setting": "Human Jurkat-E6-1 cells", "result": 382, "unit": "%"}]}, {"smiles": "COc1cccc(F)c1-n1nc2c(-c3ccc(N4CCOCC4)cc3)n[nH]c2c(C)c1=O", "note": "[Compound 155, 5-(2-fluoro-6-methoxyphenyl)-7-methyl-3-(4-morpholinophenyl)-1H-pyrazolo[4,3-c]pyridazin-6(5H)-one]", "values": [{"measurement": "IC50", "setting": "HPK1", "result": "0.05 to 0.5", "unit": "µM"}, {"measurement": "activity at 3 µM", "setting": "Human Jurkat-E6-1 cells", "result": 435, "unit": "%"}]}, {"smiles": "Cc1cccc(F)c1-n1nc2c(-c3ccc4c(c3)CN(C)CC4)n[nH]c2cc1=O", "note": "[Compound 156, 5-(2-fluoro-6-methylphenyl)-3-(2-methyl-1,2,3,4-tetrahydroisoquinolin-7-yl)-1H-pyrazolo[4,3-c]pyridazin-6(5H)-one]", "values": [{"measurement": "IC50", "setting": "HPK1", "result": "≤ 0.05", "unit": "µM"}, {"measurement": "activity at 3 µM", "setting": "Human Jurkat-E6-1 cells", "result": 849, "unit": "%"}]}]}
